# Results from patent US11628162B2, “Methods of treating cancer with an FGFR inhibitor” (Incyte Corporation, priority 2019, dated 2023).
# Like-named read-outs stand apart in the source and are kept apart here.
# Key:
# [1] = tested on: human liver microsomes; assay: Metabolism of pemigatinib in human liver microsomes with selective chemical CYP inhibitors; conditions: pemigatinib 1 μM, human liver microsomes 1 mg/mL, NADPH; no inhibitor or furafylline 10, ticlopidine 2, quercetin 10, sulfaphenazole 10, tranylcypromine 20, quinidine 1, ketoconazole 2 μM
# Protocol: (§1) Aliquots were taken at 0, 10, 20, and 30 minutes and denatured with methanol. After centrifugation to remove the denatured proteins, the resulting supernatants were analyzed by LC/MS.
# [2] = tested on: human liver microsomes; conditions: 0.5 h, 1 μM, pH 7.4
# Protocol: as §1
SMILES,Mean Percent of Pemigatinib Remaining After 30-Minute Incubation (N = 3) [1],Mean Percent of Pemigatinib Remaining After 30-Minute Incubation (N = 3) [2]
N[C@@H]1C[C@H]1c1ccccc1 (racemic) [Tranylcypromine],73 ± 2%,
Cc1nc2c([nH]1)c(=O)n(C)c(=O)n2Cc1ccco1 [Furafylline],,67 ± 1%
Nc1ccc(S(=O)(=O)Nc2ccnn2-c2ccccc2)cc1 [Sulfaphenazole],,70 ± 3%
